Test results: PubChem BioAssay (NCI)
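Results reflect a 48-hour exposure of cells in 96-well plates to compound at five concentrations. The concentration for full growth arrest is given as TGI.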 Where a SMILES comes first, the peptide text is derived from it. The star is where a group is joined. OSu = O=C1CCC(=O)N1O*

Assays:
Assay in all cases: NCI tumour cell line growth inhibition, 48 h
A549 NSCLC = test system: A549 NSCLC
DU-145 prostate = test system: DU-145 prostate
HOP-62 NSCLC = test system: HOP-62 NSCLC
HT29 colon = test system: HT29 colon
MOLT-4 leukemia = test system: MOLT-4 leukemia
SF-295 CNS = test system: SF-295 CNS
SR leukemia = test system: SR leukemia
TK-10 renal = test system: TK-10 renal
UACC-257 melanoma = test system: UACC-257 melanoma
CCRF-CEM leukemia = test system: CCRF-CEM leukemia

SMILES	TGI (A549 NSCLC) [µM]	TGI (DU-145 prostate) [µM]	TGI (HOP-62 NSCLC) [µM]	TGI (HT29 colon) [µM]	TGI (MOLT-4 leukemia) [µM]	TGI (SF-295 CNS) [µM]	TGI (SR leukemia) [µM]	TGI (TK-10 renal) [µM]	TGI (UACC-257 melanoma) [µM]	TGI (CCRF-CEM leukemia) [µM]
O=C(Nc1ccc2cc3ccccc3cc2c1)c1cc2c(cc1Cl)Sc1nccn1S2(=O)=O	> 100	> 100	> 100	> 100	> 100	> 100	> 100	70.7	> 100	–
O=C(O)c1ccc(Nc2nc3nn(Cc4ccccc4)cc3c(=O)s2)cc1	> 100	–	> 100	–	> 100	> 100	> 100	> 100	> 100	> 100
N#Cc1c(-c2ccccc2)cc(Nc2ccc(Cl)cc2)n2c1nc1ccccc12	> 40.1	> 100	> 58.2	11.4	9.5	> 33.3	20.3	> 100	> 28.8	> 94.7
COc1ccc2c(c1OC)C(=O)O[C@@H]2[C@H]1c2c(cc3c(c2OC)OCO3)CCN1C	> 100	> 100	> 100	> 100	> 100	> 100	> 100	–	> 100	> 100
COCOc1cc(OC)ccc1C/C(=N/O)C(=O)OC	> 100	> 100	> 100	> 100	> 100	> 100	–	> 100	> 100	> 100
CC(=O)NC1(C)C(C)C2CC1C(C)C2(C)C (centres undefined)	> 100	> 100	> 100	> 100	> 100	> 100	> 100	> 100	> 100	> 100
O=[N+]([O-])C(C(Cl)=C(Cl)Cl)=C(n1cncn1)n1cncn1	> 100	31.6	> 100	39.4	> 100	> 100	> 100	> 100	> 65.7	22
CCCCCCCCCC(=O)NC(Cc1ccc(O)cc1)C(=O)NCCCNCCCCNCCCNC(=O)[C@@H](N)CCCN=C(N)N (some centres undefined)	> 100	–	69.5	> 100	> 100	85.6	> 100	> 100	> 100	> 100
Cc1cn(C2OC(CO)C(O)C2F)c(=O)[nH]c1=O (centres undefined)	> 100	> 100	> 100	> 100	> 100	> 100	–	> 100	> 100	> 100
Cc1nc(Nc2ccc(Cl)c(Cl)c2)sc1C(=O)/C=C/c1ccc2c(c1)OCO2	48.5	–	36.5	> 100	44.1	45.6	–	53.6	> 100	> 100
O=C(C1OC1c1cccc([N+](=O)[O-])c1)C12CC3CC(CC(C3)C1)C2 (centres undefined)	26.6	26.8	24.3	13	> 22.8	17.3	–	32.7	25.4	13.1
O=c1[nH]c(=O)n([C@@H]2O[C@H](CO)[C@@H](O)[C@@H]2F)cc1I	> 100	> 100	> 100	> 100	> 100	> 100	–	> 100	> 100	66.8
Cc1ccc(C2C(Cl)C(=O)N2NC(=O)c2ccc(N)cc2)cc1 (centres undefined)	71.7	–	50.2	39.9	35.3	47.8	–	> 100	66.1	39.2
CC(=O)NC1=C(N)C(=O)c2ccccc2C1=O	> 100	–	> 100	> 100	> 100	> 100	–	> 100	> 100	> 100
COc1cc(OC)c(C2(c3c(OC(C)C)c(=O)c3=O)SCCCS2)cc1OC	> 100	> 100	> 100	> 100	–	> 100	> 100	> 100	> 100	> 100
COC(=O)[C@H](Cc1c[nH]c2ccccc12)NC(=O)c1ccccc1I	> 100	53.9	> 100	> 100	56.9	> 100	58.7	77.3	35.1	–
CN(C)N=Nc1ccc2[nH]c(=O)[nH]c2c1	> 100	> 100	> 100	> 100	–	> 100	–	> 100	> 100	> 100
CCC(=O)Nc1ccc(NCC(=O)Nc2ccc(OC)cc2)cc1	> 100	> 100	11.6	> 100	> 100	> 100	> 100	–	64.2	> 100
CCOC(=O)c1nc2cc(C(F)(F)F)ccc2nc1Oc1ccc(F)cc1	> 100	> 100	–	–	> 100	> 100	> 100	> 100	> 100	> 100
COC(=O)C1(O)C(c2ccccc2)NC2(C)CCCC21 (centres undefined)	> 100	> 100	> 100	–	> 100	> 100	–	> 100	> 100	> 100
CN(C)c1ccc(/C=C(\NC(=O)c2ccccc2)C(=O)NC(Cc2c[nH]c3ccccc23)C(=O)O)cc1 (centres undefined)	> 100	> 100	> 100	> 100	> 100	> 100	–	> 100	> 100	> 100
OC12CCC3(O)c4ccccc4C3C1c1ccccc12 (centres undefined)	> 100	–	> 100	> 100	> 100	> 100	> 100	> 100	> 100	> 100
CNC(=S)/C(C#N)=C(\N)N1CCCC1	> 100	> 100	> 100	> 100	> 100	–	> 100	> 100	–	> 100

SMILES	TGI (A549 NSCLC) [µM]	TGI (DU-145 prostate) [µM]	TGI (HOP-62 NSCLC) [µM]	TGI (HT29 colon) [µM]	TGI (MOLT-4 leukemia) [µM]	TGI (SF-295 CNS) [µM]	TGI (SR leukemia) [µM]	TGI (TK-10 renal) [µM]	TGI (UACC-257 melanoma) [µM]	TGI (CCRF-CEM leukemia) [µM]
NCCCCC(NC(=O)C(N)Cc1ccc(O)cc1)C(=O)NC(Cc1ccc(O)cc1)C(=O)NC(CCCCN)C(=O)ON1C(=O)CCC1=O (centres undefined) (H-YKYK-OSu; configuration not given here)	> 100	–	> 100	> 100	> 100	–	> 100	> 100	> 100	–
O=C(NC1(C(=O)O)CCCC1)c1ccccc1	> 100	> 100	> 100	> 100	> 100	> 100	–	> 100	> 100	> 100
CC(=O)O[C@H]1C(=O)[C@@]2(C)[C@H]([C@H](OC(=O)c3ccccc3)[C@]3(O)C[C@H](OC(=O)[C@H](O)[C@@H](NC(=O)c4ccc(N(C)C)cc4)c4ccccc4)C(C)=C1C3(C)C)[C@]1(OC(C)=O)CO[C@@H]1C[C@@H]2O	> 50	–	> 50	–	> 21.9	> 50	> 18.5	> 45.1	–	2.34
OC12c3ccccc3C1CCCCCC21OCCCO1 (centres undefined)	> 100	–	> 100	> 100	> 100	> 100	–	> 100	> 100	> 100
O=C(c1ccco1)N(C(=S)N1CCN(c2ccccn2)CC1)c1ccccc1	> 100	–	> 100	> 100	> 100	> 100	> 100	> 100	> 100	> 100
C=CCn1c(-c2ccc(Cl)cc2)csc1=Nc1ccccc1OC	> 100	> 100	> 100	–	14.9	> 79.8	> 100	> 100	29.7	> 100
COc1ccc2c3c1OC1C(OC)(OC)CC4(C=C2)CN(C)CCC314 (centres undefined)	> 100	> 100	> 100	> 100	> 100	> 100	–	> 100	> 100	> 100
C[n+]1cn(-c2nc3ccccc3nc2[N-]S(=O)(=O)c2ccccc2)c2ccccc21	> 100	–	> 100	> 100	> 100	> 100	> 100	> 100	> 100	> 100
CC(=O)c1c(O)n(-c2ccc(C)cc2)c(=O)c2c(N)n[nH]c12	> 100	> 100	–	> 100	> 100	–	> 100	> 100	> 100	> 100
C=CCn1c(=N)/c(=C(\N)O)s/c1=C1/SC(=S)N(c2ccc(C)cc2)C1=O	> 100	–	–	> 100	> 100	> 100	> 100	> 100	> 100	> 100
CCn1c(CSc2nc(-c3ccccc3)c(-c3ccccc3)[nH]2)n[nH]c1=S	> 100	–	> 100	> 100	> 100	> 100	> 100	> 100	> 100	> 100
CC[n+]1c(/C=C/c2ccc(N(CCCl)CCCl)cc2)ccc2cc(I)ccc21	13.8	–	3.55	8.19	3.03	5.76	2.42	9.04	2.61	–
C/C(O[Si](C(C)C)(C(C)C)C(C)C)=C(\C)C(=O)N(C)c1ccccc1Cl	> 100	> 100	> 100	> 100	> 100	> 100	–	> 100	> 100	–
CCOC(=O)C1(C(=O)OCC)C=C(c2ccccc2)N(C2OC(COC(C)=O)C(OC(C)=O)C(OC(C)=O)C2OC(C)=O)C1=S (centres undefined)	> 100	> 100	> 100	> 100	> 100	> 100	> 100	–	> 100	> 100
CCN(CC)CCN1C(=O)C(=O)N(c2cccc3ccccc23)C1=O	> 10	> 10	> 10	> 10	> 10	> 10	> 10	> 10	–	> 10
C[C@H]1O[C@@H](C(C)(C)C)OC(=O)[C@@H]1C(OC(=O)c1ccccc1)c1cccc2ccccc12 (some centres undefined)	> 100	–	> 100	> 100	> 100	> 100	> 100	> 100	> 100	> 100
NS(=O)(=O)c1nnc(NS(=O)(=O)c2ccc([N+](=O)[O-])cc2)s1	> 100	> 100	> 100	> 100	> 100	> 100	> 100	> 100	–	–
C=CCN(CCN(CC=C)S(=O)(=O)c1ccc(C)cc1)S(=O)(=O)c1ccc(C)cc1	> 100	> 100	–	> 100	> 100	> 100	> 100	> 100	> 100	> 100
Cc1ccc(/S(Cc2ccccc2)=N\S(=O)(=O)c2ccc(C)cc2)cc1 (centres undefined)	> 100	> 100	> 100	> 100	–	> 100	> 100	> 100	> 100	> 100
COc1ccc(/C(Cl)=C(\C=O)c2ccc(Cl)cc2)cc1OC	> 100	–	42.3	20.8	6.62	14.4	5.81	31.1	37.4	10.3
O/N=C\C(=Nc1ccc(Cc2ccc(N=C(/C=N\O)NO)cc2)cc1)NO	> 100	–	> 100	> 100	> 100	> 100	–	> 100	> 100	> 100
C=CCCC(=O)C(=[N+]=[N-])C(=O)CCC(=O)c1ccccc1	> 10	> 10	> 10	> 10	> 10	> 10	> 10	> 10	> 10	–
